# Measurements: US4404211A, “Analgesic mixture of nalbuphine and flurbiprofen” (E. I. Du Pont de Nemours and Company, priority 1982, dated 1983)
# System: phenyl-p-benzoquinone induced writhing in mice
# Test: mouse antiphenylquinone (phenyl-p-benzoquinone induced) writhing test, oral, 20 min
# Protocol: Male CF1 mice obtained from Charles River Breeding Laboratories, fasted for 16-22 hours and weighing 18-22 g at the time of testing are used throughout. All mice are dosed sequentially by the oral route with solutions of flurbiprofen and/or of nalbuphine hydrochloride. A dosing volume of 10 ml/kg is used for each sequential solution or suspension. […] All doses are coded and the test is performed under a code not known to the observer.
# A stock solution of flurbiprofen is prepared by dissolving dry flurbiprofen powder with an equimolar amount of one molar sodium hydroxide and sufficient water to produce the required solution concentration. The acidity is adjusted with dilute hydrochloric acid to pH 9.0. All dosing solutions are prepared by dilution of the stock solution with distilled water; the vehicle control is distilled water.
# Stock solutions of nalbuphine HCl are prepared by dissolving dry nalbuphine hydrochloride powder with distilled water. All dosing solutions are prepared by dilution of the stock solution with distilled water; the vehicle control is distilled water.
# As indicated above, the standard procedure based upon the prevention of phenyl-p-benzoquinone induced writhing in mice is utilized to detect and quantify the analgetic activity of compositions containing nalbuphine and flurbiprofen.
# Mice, intubated with various doses of nalbuphine hydrochloride, flurbiprofen, combined doses of nalbuphine hydrochloride and flurbiprofen,or vehicle, are injected intraperitoneally with a challenge dose of phenyl-p-benzoquinone 5 minutes prior to the designated observation period. […] For scoring purposes a "writhe" is indicated by whole body stretching or contraction of the abdomen; mice are observed 10 minutes for the presence or absence of writhing beginning 5 minutes after receiving the phenyl-p-benzoquinone dose. Each mouse is used only once, then discarded. […] This dosage as described herein is referred to as the ED50.
# In order to study the interaction between nalbuphine and flurbiprofen, 5 precise dosage ratios of nalbuphine hydrochloride and flurbiprofen are selected. Four or five coded doses of each selected combination are studied for analgesic effectivenss at 20 minutes using an experimental design which permits coding and complete randomization of the separate dosage forms tested. Althogether 35 separate dosage forms are used and each form is represented in each experimental session. The experiments are continued by running experimental sessions with an equal number of mice per group being tested until the total number, N, of mice tested per group is 20. Later, an additional 20 mice/dose are tested and the results are pooled with the original data to yield N=20-40 mice/dose.
Structure (SMILES),"ED50 at 20 Min. (95% Confidence Limits), Flurbiprofen (flurbiprofen dose (alone or as component of the combination), N = 20-40 mice/dose) [mg/kg]",% MICE BLOCKED (nalbuphine HCl 0 + flurbiprofen 0.4 mg/kg) [%],% MICE BLOCKED (nalbuphine HCl 0 + flurbiprofen 0.8 mg/kg) [%],% MICE BLOCKED (nalbuphine HCl 0 + flurbiprofen 1.6 mg/kg) [%],% MICE BLOCKED (nalbuphine HCl 0 + flurbiprofen 3.2 mg/kg) [%],% MICE BLOCKED (nalbuphine HCl 2.93 + flurbiprofen 0 mg/kg) [%],% MICE BLOCKED (nalbuphine HCl 5.85 + flurbiprofen 0 mg/kg) [%],% MICE BLOCKED (nalbuphine HCl 11.7 + flurbiprofen 0 mg/kg) [%],% MICE BLOCKED (nalbuphine HCl 23.4 + flurbiprofen 0 mg/kg) [%],% MICE BLOCKED (nalbuphine HCl 46.8 + flurbiprofen 0 mg/kg) [%],"ED50 at 20 Min. (95% Confidence Limits), Nalbuphine HCl (nalbuphine HCl dose (alone or as component of the combination), N = 20-40 mice/dose) [mg/kg]"
"CC(C(=O)O)c1ccc(-c2ccccc2)c(F)c1 (stereo not drawn) [Flurbiprofen Only (0:1), 2-fluoro-α-methyl[1,1'-biphenyl]-4-acetic acid]",1.56,5.0,32.5,45.0,87.5,–,–,–,–,–,–
"Oc1ccc2c3c1O[C@H]1[C@@H](O)CC[C@@]4(O)[C@@H](C2)N(CC2CCC2)CC[C@]314 [Nalbuphine Only (1:0), (-)-17-(cyclobutylmethyl)-4,5α-epoxymorphinan-3,6α,14-triol]",–,–,–,–,–,12.5,22.5,45.0,67.5,80.0,16.5
